Test results taken from patent US20220273659A1, “HETEROCYCLIC COMPOUNDS AS KINASE INHIBITORS” (NUVATION BIO INC., priority 2019, published 2022).
Like-named read-outs stand apart in the source and are kept apart here.

What was measured:
[1] = target: T1, CDK2 (cyclin A) (Homo sapiens, UniProt P24941); assay: Z'-LYTE kinase assay; assay type: biochemical
T1 construct: purchased Invitrogen Life Technologies (assay service)
Protocol: IC50 values of compounds against CDK2 (cyclin A) were determined by Z′-LYTE™ These screening assays were performed at Invitrogen Life Technologies (Grand Island, N.Y.) on a low volume NBS, black 384-well plate (#4514, Corning). 0.1 μL of 100×test compound in 100% DMSO (at specific solutions) was mixed with 2.4 μL of Kinase Buffer (50 mM HEPES pH 7.5, 0.01% BRIJ-35, 10 mM MgCl2, 1 mM EGTA), 5 μL of 2× Kinase (1.22-10.3 ng CDK2/cyclin A)/Peptide (2 μM Ser/Thr 12), and 2.5 μL of 4×ATP solution (31 μM). The plates were shaken for 30 seconds, and incubated for 60 minutes at room temperature. Development Reagent Solution (5 μL of 1:1024 dilution) was added to the plates followed with another 30-second plate shake and the plates were further incubated at room temperature for one hour. The plates were read on fluorescence plate reader with Dual emission at 445 nm and 520 nm.
The following equations were used for Z′-LYTE™ Screening Assay Data Analysis. Percent inhibition (100-% activity) was fitted to the “four-parameter logistic model” in XLfit for determination of IC50 values.

[2] = target: T2, CDK4 (Homo sapiens, UniProt P11802); assay: In vitro kinase inhibition IC50, luminescence (ADP Glo), retinoblastoma substrate; assay type: biochemical; settings: read-out: CDK4/D1 IC50
T2 construct: purchased Invitrogen PR8064A
T2 sequence (P11802 whole entry): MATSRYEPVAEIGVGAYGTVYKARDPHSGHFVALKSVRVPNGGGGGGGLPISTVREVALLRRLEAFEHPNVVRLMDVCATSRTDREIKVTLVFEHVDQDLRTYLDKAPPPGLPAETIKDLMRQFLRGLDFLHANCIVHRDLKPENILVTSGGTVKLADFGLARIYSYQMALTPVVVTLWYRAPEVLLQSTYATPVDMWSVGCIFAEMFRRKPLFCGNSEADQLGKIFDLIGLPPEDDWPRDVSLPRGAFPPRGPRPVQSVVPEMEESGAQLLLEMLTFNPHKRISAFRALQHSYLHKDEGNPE
T2 sequence (P24385 whole entry partner): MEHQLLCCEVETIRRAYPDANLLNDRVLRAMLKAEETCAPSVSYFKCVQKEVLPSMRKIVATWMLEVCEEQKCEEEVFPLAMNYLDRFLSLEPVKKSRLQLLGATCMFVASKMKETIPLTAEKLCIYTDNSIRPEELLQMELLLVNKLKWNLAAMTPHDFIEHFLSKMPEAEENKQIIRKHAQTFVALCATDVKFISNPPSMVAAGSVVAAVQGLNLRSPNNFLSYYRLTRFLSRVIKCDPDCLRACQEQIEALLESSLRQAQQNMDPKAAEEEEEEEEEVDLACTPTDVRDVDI
Summary of the method: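 CDK4 enzyme (5 nM, Invitrogen) was combined with test compound and a mix of retinoblastoma substrate (1 μM) plus ATP (25 μM) in kinase buffer, 30 μL/well in 96-well half area white plates. After 2H at room temperature, ADP Glo reagent stopped the reaction for 45 min, then detection reagent was added and luminescence was read.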

[3] = target: T3, CDK6 (Homo sapiens, UniProt Q00534); assay: as above; assay type: biochemical; settings: read-out: CDK6/D1 IC50
T3 construct: purchased Invitrogen PR8422B
T3 sequence (Q00534 whole entry): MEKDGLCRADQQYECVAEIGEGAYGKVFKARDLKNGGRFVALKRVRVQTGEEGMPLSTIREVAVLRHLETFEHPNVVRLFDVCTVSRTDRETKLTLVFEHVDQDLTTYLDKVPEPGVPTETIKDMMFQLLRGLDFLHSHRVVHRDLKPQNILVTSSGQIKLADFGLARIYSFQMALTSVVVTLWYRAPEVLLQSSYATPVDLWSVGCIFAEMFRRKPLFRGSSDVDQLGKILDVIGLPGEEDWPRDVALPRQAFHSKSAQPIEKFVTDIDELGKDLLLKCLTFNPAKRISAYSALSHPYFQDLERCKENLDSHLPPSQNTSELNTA
T3 sequence (P24385 whole entry partner): as the sequence (P24385 whole entry partner) above
Summary of the method: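 Recombinant CDK6 (5 nM) with retinoblastoma substrate (1 μM) and 25 μM ATP, compound at final 0.1–200 nM, incubated 2 h at room temperature. ADP formed detected by ADP-Glo luminescence. IC50 from four-parameter logistic fit of percent inhibition.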

[4] = target: T4, CDK1 (cyclin B) (Homo sapiens, UniProt P06493); assay: Z'-LYTE kinase assay; assay type: biochemical
T4 construct: purchased Invitrogen Life Technologies (assay service)
T4 sequence (P06493 whole entry): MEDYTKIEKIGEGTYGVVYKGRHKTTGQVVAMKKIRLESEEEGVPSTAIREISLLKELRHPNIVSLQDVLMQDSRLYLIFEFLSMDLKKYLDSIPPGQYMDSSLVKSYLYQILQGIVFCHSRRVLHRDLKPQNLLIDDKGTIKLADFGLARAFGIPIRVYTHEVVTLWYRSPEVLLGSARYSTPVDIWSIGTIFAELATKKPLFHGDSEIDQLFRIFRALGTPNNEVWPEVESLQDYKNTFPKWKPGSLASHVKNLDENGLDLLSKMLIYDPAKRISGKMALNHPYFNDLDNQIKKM
T4 sequence (P14635 whole entry partner): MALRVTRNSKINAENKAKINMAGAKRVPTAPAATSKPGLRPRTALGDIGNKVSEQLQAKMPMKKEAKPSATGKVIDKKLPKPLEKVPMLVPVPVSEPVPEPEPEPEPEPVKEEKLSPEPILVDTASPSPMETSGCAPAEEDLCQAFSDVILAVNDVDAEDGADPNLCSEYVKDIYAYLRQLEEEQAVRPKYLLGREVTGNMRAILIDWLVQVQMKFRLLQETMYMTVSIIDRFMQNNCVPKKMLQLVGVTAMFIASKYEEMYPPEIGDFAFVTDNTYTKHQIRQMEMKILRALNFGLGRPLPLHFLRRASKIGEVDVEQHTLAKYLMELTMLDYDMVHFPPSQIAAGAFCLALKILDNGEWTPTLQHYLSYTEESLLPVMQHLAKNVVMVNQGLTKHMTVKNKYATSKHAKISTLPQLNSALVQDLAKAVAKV
Protocol: The plates were shaken for 30 seconds, and incubated for 60 minutes at room temperature. […] The plates were read on fluorescence plate reader with Dual emission at 445 nm and 520 nm.
The following equations were used for Z′-LYTE™ Screening Assay Data Analysis.

[5] = target: T5, FMS kinase (Homo sapiens, UniProt P07333); assay: LanthaScreen Eu Kinase Binding Assay (ATP, fluorescent-PolyGT substrate); assay type: biochemical
T5 construct: purchased Invitrogen (Life Technologies)
T5 sequence (P07333 20-972): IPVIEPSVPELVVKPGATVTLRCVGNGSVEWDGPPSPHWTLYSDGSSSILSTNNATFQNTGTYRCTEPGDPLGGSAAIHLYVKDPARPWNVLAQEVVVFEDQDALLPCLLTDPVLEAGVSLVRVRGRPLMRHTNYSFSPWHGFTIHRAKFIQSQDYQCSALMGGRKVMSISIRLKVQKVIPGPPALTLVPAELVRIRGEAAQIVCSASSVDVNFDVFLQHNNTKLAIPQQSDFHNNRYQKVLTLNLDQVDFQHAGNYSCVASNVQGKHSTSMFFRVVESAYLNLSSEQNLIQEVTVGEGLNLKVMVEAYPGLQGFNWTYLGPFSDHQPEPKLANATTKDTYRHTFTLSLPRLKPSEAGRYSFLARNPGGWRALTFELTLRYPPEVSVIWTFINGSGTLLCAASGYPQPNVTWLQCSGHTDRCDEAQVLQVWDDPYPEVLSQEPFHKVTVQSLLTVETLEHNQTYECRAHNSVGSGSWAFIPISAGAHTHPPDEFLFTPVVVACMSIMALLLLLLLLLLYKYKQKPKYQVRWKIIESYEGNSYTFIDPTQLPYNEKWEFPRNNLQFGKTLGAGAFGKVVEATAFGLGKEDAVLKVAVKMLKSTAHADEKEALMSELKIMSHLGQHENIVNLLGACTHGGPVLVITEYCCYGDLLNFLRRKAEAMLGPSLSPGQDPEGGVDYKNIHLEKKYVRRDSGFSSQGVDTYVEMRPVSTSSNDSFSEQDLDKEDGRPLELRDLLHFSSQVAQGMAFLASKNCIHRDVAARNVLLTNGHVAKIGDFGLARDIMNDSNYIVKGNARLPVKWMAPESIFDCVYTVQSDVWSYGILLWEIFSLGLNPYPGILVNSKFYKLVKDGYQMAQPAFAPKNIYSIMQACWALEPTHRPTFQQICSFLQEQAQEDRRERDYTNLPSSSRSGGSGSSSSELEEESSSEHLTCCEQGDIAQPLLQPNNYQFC
Summary of the method: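 Kinase (1.25 nM) preincubated 10 min with 3-fold compound dilutions, then ATP 10 μM and fluorescent PolyGT substrate 200 nM added for 1 h in the dark at room temperature. Stopped with Tb-antibody (4 nM) and EDTA 20 mM; TR-FRET at 340 nm excitation, 495/520 nm emission; IC50 from four-parameter fit.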

[6] = system: DU4475 breast carcinoma cells; assay: Cancer cell proliferation assay, single agent (cell viability); assay type: cell-based; settings: Homo sapiens, DU-4475; Table 4; Rb negative; treatment 144 Hr with medium change at 72 Hr; Cell Titer-Glo or resazurin
Summary of the method: (§1)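 Cells seeded day 1, then exposed on day 2 to 7–9 compound concentrations (e.g. 1.1 nM–10 μM); BT-549 for 24 h, MCF-7 and DU4475 for 144 h with medium change at 72 h. Viability by CellTiter-Glo or resazurin; IC50 from variable-slope sigmoidal fit.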

[7] = system: MCF-7 breast adenocarcinoma cells; assay: as above; assay type: cell-based; settings: Homo sapiens, MCF7, Table 4; Rb positive; treatment 144 Hr with medium change at 72 Hr; Cell Titer-Glo or resazurin
Summary of the method: as §1

[8] = target: T6, PI3Kδ kinase (Homo sapiens, UniProt O00329); assay: PI3Kδ kinase assay (ADP-Glo, Reaction Biology); assay type: biochemical
T6 construct: purchased Reaction Biology Corporation (assay service)
T6 sequence (O00329 whole entry): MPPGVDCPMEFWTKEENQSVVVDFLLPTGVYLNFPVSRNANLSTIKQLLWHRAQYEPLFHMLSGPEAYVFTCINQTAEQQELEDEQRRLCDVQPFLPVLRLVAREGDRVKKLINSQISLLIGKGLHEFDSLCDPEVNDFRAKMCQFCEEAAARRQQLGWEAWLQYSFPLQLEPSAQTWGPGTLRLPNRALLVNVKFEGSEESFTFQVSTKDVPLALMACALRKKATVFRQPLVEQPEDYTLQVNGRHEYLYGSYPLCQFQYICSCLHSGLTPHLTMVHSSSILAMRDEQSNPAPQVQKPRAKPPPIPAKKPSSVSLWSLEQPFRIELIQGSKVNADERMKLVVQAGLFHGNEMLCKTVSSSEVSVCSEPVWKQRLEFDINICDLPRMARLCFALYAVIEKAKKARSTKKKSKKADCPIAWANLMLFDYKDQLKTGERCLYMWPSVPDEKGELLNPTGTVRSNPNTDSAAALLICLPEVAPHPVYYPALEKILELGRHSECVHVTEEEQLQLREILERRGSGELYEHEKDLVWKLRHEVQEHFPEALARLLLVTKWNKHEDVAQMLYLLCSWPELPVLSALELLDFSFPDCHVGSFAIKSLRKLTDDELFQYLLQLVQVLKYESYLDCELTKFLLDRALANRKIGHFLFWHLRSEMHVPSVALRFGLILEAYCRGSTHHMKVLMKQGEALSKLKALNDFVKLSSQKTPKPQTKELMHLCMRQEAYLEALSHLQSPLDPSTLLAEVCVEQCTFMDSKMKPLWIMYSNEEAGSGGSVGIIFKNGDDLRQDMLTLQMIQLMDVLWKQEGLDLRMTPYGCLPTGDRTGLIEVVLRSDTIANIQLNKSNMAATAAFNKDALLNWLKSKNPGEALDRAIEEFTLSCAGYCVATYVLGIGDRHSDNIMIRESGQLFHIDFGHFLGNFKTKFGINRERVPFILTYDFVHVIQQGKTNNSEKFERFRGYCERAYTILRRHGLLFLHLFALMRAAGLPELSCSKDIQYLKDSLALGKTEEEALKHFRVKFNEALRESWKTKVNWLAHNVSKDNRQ
T6 sequence (P27986 whole entry partner): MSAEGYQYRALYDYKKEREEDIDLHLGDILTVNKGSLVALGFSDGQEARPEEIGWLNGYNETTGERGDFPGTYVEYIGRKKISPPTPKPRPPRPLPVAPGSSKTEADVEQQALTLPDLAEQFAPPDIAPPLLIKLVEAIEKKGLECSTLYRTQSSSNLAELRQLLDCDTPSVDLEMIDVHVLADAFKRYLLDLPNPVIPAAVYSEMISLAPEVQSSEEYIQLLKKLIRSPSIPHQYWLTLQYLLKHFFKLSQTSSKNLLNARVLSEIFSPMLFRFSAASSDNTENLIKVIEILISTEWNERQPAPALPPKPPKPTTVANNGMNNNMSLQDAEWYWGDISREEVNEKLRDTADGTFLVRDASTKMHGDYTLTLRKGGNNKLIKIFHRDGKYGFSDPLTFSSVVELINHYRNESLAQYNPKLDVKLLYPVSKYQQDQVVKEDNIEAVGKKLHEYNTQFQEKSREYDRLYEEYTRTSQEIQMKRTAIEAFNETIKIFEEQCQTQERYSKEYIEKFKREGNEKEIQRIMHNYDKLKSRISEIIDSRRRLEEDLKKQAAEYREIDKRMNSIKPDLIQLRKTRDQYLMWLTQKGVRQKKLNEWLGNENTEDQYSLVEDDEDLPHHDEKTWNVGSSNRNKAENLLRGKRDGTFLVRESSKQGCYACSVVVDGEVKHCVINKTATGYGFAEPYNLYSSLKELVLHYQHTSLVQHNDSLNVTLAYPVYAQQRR
Summary of the method: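 Kinase in Tris-HCl 40 mM pH 7.5, MgCl2 20 mM, orthovanadate 3 mM, DTT 2 mM, 0.05% CHAPS, 1% DMSO, preincubated 10 min at room temperature with compound (about 0.5 nM–100 μM). ATP started a 30-min reaction at 30 °C. ADP-Glo luminescence converted to μM ADP via standard curve; IC50 from nonlinear regression.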

| Structure (SMILES) | IC50 [1] | IC50 [2] | IC50 [3] | IC50 ([4]; read-out: CDK1/B IC50) | IC50 [4] | IC50 [5] | IC50 [6] | IC50 [7] | IC50 [8] |
| --- | --- | --- | --- | --- | --- | --- | --- | --- | --- |
| Cn1ccc(S(=O)(=O)N2CCC(Nc3ncc4cc(C(F)F)c(=O)n([C@H]5C[C@@H]6CC[C@H]5C6)c4n3)CC2)n1 [Compound 395, 8-((1S,2S,4R)-bicyclo[2.2.1]heptan-2-yl)-6-(difluoromethyl)-2-((1-((1-methyl-1H-pyrazol-3-yl)sulfonyl)piperidin-4-yl)amino)pyrido[2,3-d]pyrimidin-7(8H)-one] | 18 nM | 13 nM | 11 nM |  | 66 nM |  |  |  |  |
| CN1CCC(c2ccc(Nc3ncc4cc(C#N)c(=O)n(C5CCCC5)c4n3)cc2)CC1 [Compound No. 40, 8-cyclopentyl-2-((4-(1-methylpiperidin-4-yl)phenyl)amino)-7-oxo-7,8-dihydropyrido[2,3-d]pyrimidine-6-carbonitrile] |  | > 200 nM | 76 nM |  |  | 1 nM | 2800 nM | 133 nM | 416 nM |
| N#Cc1cc2cnc(Nc3ccc(N4CCNCC4=O)c(F)c3)nc2n(C2CCCC2)c1=O [Compound No. 57, 8-cyclopentyl-2-((3-fluoro-4-(2-oxopiperazin-1-yl)phenyl)amino)-7-oxo-7,8-dihydropyrido[2,3-d]pyrimidine-6-carbonitrile] |  | 6.5 nM | 12 nM |  |  | 1 nM | 5180 nM | 1480 nM | 249 nM |
| N#Cc1cc2cnc(Nc3ccn(C4CCNCC4)c(=O)c3)nc2n(C2CCCC2)c1=O [Compound No. 60, 8-cyclopentyl-7-oxo-2-((2-oxo-1-(piperidin-4-yl)-1,2-dihydropyridin-4-yl)amino)-7,8-dihydropyrido[2,3-d]pyrimidine-6-carbonitrile] |  | 52 nM | 55 nM |  |  | 18 nM | 5080 nM | 6900 nM | 34 nM |
| COCCn1cc(Nc2ncc3cc(C#N)c(=O)n(C4CCCC4)c3n2)cn1 [Compound No. 104, 8-cyclopentyl-2-((1-(2-methoxyethyl)-1H-pyrazol-4-yl)amino)-7-oxo-7,8-dihydropyrido [2,3-d] pyrimidine-6-carbonitrile] | 140 nM | > 180 nM | 56 nM |  |  |  | 2520 nM | 1040 nM | 75 nM |
| CN(C)CCn1cc(Nc2ncc3cc(C#N)c(=O)n(C4CCCC4)c3n2)cn1 [Compound No. 105, 8-cyclopentyl-2-((1-(2-(dimethylamino)ethyl)-1H-pyrazol-4-yl)amino)-7-oxo-7,8-dihydropyrido[2,3-d]pyrimidine-6-carbonitrile] |  | 69 nM | 34 nM | > 3400 nM |  |  | 3820 nM | 675 nM | 456 nM |
| CN(C)CC(=O)N1CCC(n2cc(Nc3ncc4cc(C#N)c(=O)n(C5CCCC5)c4n3)cn2)CC1 [Compound No. 202, 8-cyclopentyl-2-((1-(1-(dimethylglycyl)piperidin-4-yl)-1H-pyrazol-4-yl)amino)-7-oxo-7,8-dihydropyrido[2,3-d]pyrimidine-6-carbonitrile] | 154 nM | 58 nM | 26 nM |  |  |  | 3760 nM | 830 nM | 39 nM |
| CN1CCC(n2cc(Nc3ncc4cc(C#N)c(=O)n(C5CCCC5)c4n3)cn2)CC1 [Compound No. 325, 8-cyclopentyl-2-((1-(1-methylpiperidin-4-yl)-1H-pyrazol-4-yl)amino)-7-oxo-7,8-dihydropyrido [2,3-d] pyrimidine-6-carbonitrile] | 382 nM | 70 nM | 36 nM |  |  |  | 2420 nM | 445 nM | 22 nM |
| N#Cc1cc2cnc(Nc3nc(C4CCNCC4)cs3)nc2n(C2CCCC2)c1=O [Compound No. 327, 8-cyclopentyl-7-oxo-2-((4-(piperidin-4-yl)thiazol-2-yl)amino)-7,8-dihydropyrido [2,3-d] pyrimidine-6-carbonitrile] |  | 26 nM | 9 nM | > 5000 nM |  |  | 1700 nM | 650 nM | 5690 nM |

Further compounds by falling IC50 [2], results first:

| IC50 [1] | IC50 [2] | IC50 [3] | IC50 ([4]; read-out: CDK1/B IC50) | IC50 [4] | IC50 [5] | IC50 [6] | IC50 [7] | IC50 [8] | Structure (SMILES) |
| --- | --- | --- | --- | --- | --- | --- | --- | --- | --- |
|  | 6.5 nM | 16 nM |  |  | 0.6 nM | 1260 nM | 480 nM | 1690 nM | N#Cc1cc2cnc(Nc3ccc(N4CCN5CCCC5C4)c(F)c3)nc2n(C2CCCC2)c1=O (stereo not drawn) [Compound No. 55, 8-cyclopentyl-2-((3-fluoro-4-(hexahydropyrrolo[1,2-a]pyrazin-2(1H)-yl)phenyl)amino)-7-oxo-7,8-dihydropyrido[2,3-d]pyrimidine-6-carbonitrile] |
|  | 6 nM | 22 nM |  |  | 1 nM | 1320 nM | 540 nM | 1310 nM | N#Cc1cc2cnc(Nc3ccc(N4CCN5CCCCC5C4)c(F)c3)nc2n(C2CCCC2)c1=O (stereo not drawn) [Compound No. 59, 8-cyclopentyl-2-((3-fluoro-4-(octahydro-2H-pyrido[1,2-a]pyrazin-2-yl)phenyl)amino)-7-oxo-7,8-dihydropyrido[2,3-d]pyrimidine-6-carbonitrile] |
| 19 nM | 4 nM | 4.5 nM | 88 nM |  |  |  |  |  | CS(=O)(=O)N1CCC(Nc2ncc3cc(C(F)F)c(=O)n(C4CC5CCC4C5)c3n2)CC1 (racemic) [Compound 401, 8-((1S,2S,4R)-bicyclo[2.2.1]heptan-2-yl)-6-(difluoromethyl)-2-((1-(methylsulfonyl)piperidin-4-yl)amino)pyrido[2,3-d]pyrimidin-7(8H)-one] |
|  | 3 nM | 3.5 nM |  |  | 7 nM | 1100 nM | 150 nM | 248 nM | CN(C)CC(=O)N1CCc2cc(Nc3ncc4cc(C#N)c(=O)n(C5CCCC5)c4n3)ccc2C1 [Compound No. 54, 8-cyclopentyl-2-((2-(dimethylglycyl)-1,2,3,4-tetrahydroisoquinolin-6-yl)amino)-7-oxo-7,8-dihydropyrido[2,3-d]pyrimidine-6-carbonitrile] |
| 5 nM | 2.5 nM | 4.5 nM |  | 31 nM |  |  |  |  | CS(=O)(=O)N1CCC(Nc2ncc3cc(C(F)F)c(=O)n([C@H]4C[C@H]5C[C@H]5C4)c3n2)CC1 [Compound 196, 8-((1R,3R,5S)-bicyclo[3.1.0]hexan-3-yl)-6-(difluoromethyl)-2-((1-(methylsulfonyl)piperidin-4-yl)amino)pyrido[2,3-d]pyrimidin-7(8H)-one] |
|  | 2.5 nM | 4 nM |  |  | 9.5 nM | 1280 nM | 190 nM | 249 nM | CN(C)CC(=O)N1CCc2ccc(Nc3ncc4cc(C#N)c(=O)n(C5CCCC5)c4n3)cc2C1 [Compound No. 53, 8-cyclopentyl-2-((2-(dimethylglycyl)-1,2,3,4-tetrahydroisoquinolin-7-yl)amino)-7-oxo-7,8-dihydropyrido[2,3-d]pyrimidine-6-carbonitrile] |
